Measured values as given in US9657348B2, “Method of screening compounds for the treatment of diabetes” (ATROGI AB, priority 2013, dated 2017).
“Also recorded” adds a separate entry of the source. Starred links: 1 amine or outer side, 2 acyl side, 3 side chain; linkers in the order of their positions; H or OH if unused. Positions of bridges follow the written chain, without caps; N, C: chain ends. Non-standard residues stand in square brackets, D forms with d. Residues, ends and D or L forms follow the SMILES beside them. Chains are numbered I, II in the order given. Actinocin(9to1) = Cc1c2oc3c(C)ccc(C(=O)[*:1])c3nc-2c(C(=O)[*:2])c(N)c1=O; NMeV = CN[C@H](C(=O)O)C(C)C; Sar = CNCC(=O)O

Assays:
[1] = test system: cAMP; assay: cAMP content over time in L6 myotubes; assay type: cell-based, rat; conditions: for maximum difference in cAMP versus cells not brought into contact (Δ1): L6 myotubes
Method: Further, to determine whether contacting BRL37344 causes a response of a classical secondary messenger in cells with which it is brought into contact, the concentration of cAMP was measured during a period of time. As a reference, cAMP in cells not brought into contact was measured. In FIG. 9A the difference Δ1 for BRL37344 is plotted, and the maximum difference is about 8 pmol. […] The calculated value of r″ therefore is 8/45=0.18.

[2] = test system: soleus muscle; assay: 3-O-methylglucose transport (glucose uptake) in isolated soleus muscle; assay type: cell-based; conditions: soleus muscle from rat; FIG. 1A
Method: (§1) Soleus muscles were dissected from Sprague-Dawley rats and suspended in Krebs-Henseleit bicarbonate (KHB) buffer (118.5 mM NaCl, 4.7 mM KCl, 1.2 mM KH2PO4, 25 mM NaHCO3, 2.5 mM CaCl2, 1.2 mM MgSO4, 5 mM HEPES) in organ baths containing 30 ml KHB containing 5 mM glucose and 15 mM mannitol, bubbled with 95% O2/5% CO2 (pH 7.4) and maintained at 37° C. […] Muscles were rinsed with KHB (20 mM mannitol) for 10 min, then incubated in KHB (8 mM 3-O-methylglucose and 12 mM mannitol with 438 μCi/mmol 3-O-methyl[3H]glucose (80.2 Ci/mmol; PerkinElmer) and 42 μCi/mmol [^14C] mannitol (58.8 mCi/mmol; PerkinElmer, USA)) for 12 min. Muscles were then rinsed with PBS and frozen in liquid nitrogen, weighed and dissolved in 1 mL of 0.5M NaOH at 60° C. ^3H and ^14C were measured by liquid scintillation counting. Total muscle 3-O-methylglucose and extracellular space were measured as described previously (Zierath 1995). Intracellular 3-O-methylglucose accumulation was calculated by: (Total muscle 3-O-methylglucose)−(extracellular 3-O-methylglucose)=intracellular 3-O-methylglucose. This was then expressed as a rate of 3-O-methylglucose transport per mL of intracellular water per hour. Glucose uptake was measured in L6 skeletal muscle cells and in human skeletal muscle cells (SKMC) grown in 12-well plates using ^3H-2-deoxyglucose as previously described (Nevzorova et al. 2002) with minor modifications. […]

[3] = test system: human skeletal muscle cells (SKMC); assay: 3H-2-deoxyglucose uptake in human skeletal muscle cells; assay type: cell-based; conditions: FIG. 1C
Method: as §1

[4] = test system: GLUT4; assay: GLUT4 translocation to plasma membrane by immunocytochemistry in L6 cells; assay type: cell-based, rat; conditions: non-permeabilized L6 myoblasts; 1 μM, 2 h
[5] = test system: L6 skeletal muscle cells; assay: 3H-2-deoxyglucose uptake in L6 myotubes, with or without inhibitors or GRK2 siRNA; assay type: cell-based, rat; conditions: for glucose uptake / effect of GRK2 knock-down with siRNA on glucose uptake stimulated by the substance / basal glucose uptake in presence of inhibitor / insulin- and GPCR-stimulated glucose uptake in presence of inhibitor: L6 myotubes; for glucose uptake: stimulation with drug; for effect of GRK2 knock-down with siRNA on glucose uptake stimulated by the substance: FIG. 7, FIG. 9B; for basal glucose uptake in presence of inhibitor / insulin- and GPCR-stimulated glucose uptake in presence of inhibitor: inhibitor pretreatment 30 min; for insulin- and GPCR-stimulated glucose uptake in presence of inhibitor: then insulin or GPCR stimulation
Method: Cells were grown as in Example 1. Cells were pretreated with inhibitors for 30 min and then exposed to GPCR stimulation.
GRK2 siRNA constructs (Sigma Aldrich) as well as control sequence was transfected into L6 mytoubes by electroporation. Differentiated L6 cells were detached by washing in PBS followed by 5 minutes of incubation in trypsin/EDTA (0.1% trypsin w/v, 0.02% EDTA w/v). The detached cells were transferred to Eppendorf tubes and centrifugation at 1000×g for 3 minutes was performed before supernatant was removed and the cells were resuspended in 20 μl/well of SE Cell Line Nucleofector® (Lonza) and 100 nM siRNA. Cells were transferred to a 16-well microcuvette plate (Lonza) and were electroporated in a 4D-Nucleofector® (Lonza). 80 μl of pre-warmed RPMI1640 medium were added to the each microcuvette well for 5 min before the cells were transferred to the Eppendorf tubes containing culture media. Cells were serum starved over night and glucose uptake measured 24 hours after transfection.
Glucose uptake was detected by ^3H-2-dexoy-glucose as previously described (Nevzorova 2002), with minor modifications. Differentiated L6-myotubes were serum-starved over night in media containing 0.5% fatty-acid free BSA and stimulated with agonists for totally 2 h, unless otherwise stated. Cells were exposed to 50 nM ^3H-2-dexoy-glucose in glucose free media for 6-10 minutes before the experiment was ended by washing the cells in ice-cold PBS or glucose free media. Cells were lysed in 0.2 M NaOH for 1 h in 60° C., mixed with scintillation buffer (Emulsifier Safe, Perkin Elmer) and radioactivity detected in a β-counter (Tri-Carb 2800TR, Perkin Elmer).

[6] = test system: Human prostate carcinoma (22rv1) cells; assay: Glucose uptake in 22rv1 cells with or without GRK2 siRNA; assay type: cell-based; conditions: FIG. 8
Method: Human prostate carcinoma (22rv1) cells were grown for 7 days in RPMI-1640 medium. […] At day 7, 22rv1 cells were treated with siRNA. siRNA constructs GRK2 (Sigma Aldrich) as well as control sequence were transfected into 22rv1 cells by lipofectamine (Life Technologies Corp.) according to the manufacturer's protocol. Cells were serum starved over night and glucose uptake was measured 24 hours after transfection. Cells were stimulated with drugs for totally 2 h, unless otherwise stated.

[7] = test system: L6 skeletal muscle cells; assay: Cell viability of L6 cells under transcription/translation inhibitor

Compound: CC(C)NCC(O)c1ccc(O)c(O)c1 (racemic) [isoproterenol, (RS)-4-[1-hydroxy-2-(isopropylamino)ethyl]benzene-1,2-diol]
- maximum difference in cAMP versus cells not brought into contact (Δ1) ([1]; FIG. 9A): about 45 pmol
- glucose uptake [2]: leads to glucose uptake
- glucose uptake [3]: leads to glucose uptake
- GLUT4 recruitment to the plasma membrane [4]: GLUT4 recruitment to the plasma membrane to the same extent

Compound: C[C@H](Cc1ccc(OCC(=O)O)cc1)NC[C@H](O)c1cccc(Cl)c1 (relative stereo) [BRL37344, (±)-(R*,R*)-[4-[2-[[2-(3-chlorophenyl)-2-hydroxy-ethyl]amino]propyl]phenoxy]acetic acid]
- ratio r″ (cAMP response of compound / cAMP response of isoproterenol) ([1]; 8/45): 0.18
- maximum difference in cAMP versus cells not brought into contact (Δ1) ([1]; FIG. 9A): about 8 pmol
- contents of cAMP over basal ([1]; skeletal muscle cells (L6 myotubes), all time points, FIG. 9A): did not significantly increase
- glucose uptake in % of the glucose uptake of the same cells brought into contact with vehicle only ([5]; (untransfected) cells expressing GRK2, FIG. 9B): 175%
- glucose uptake [5]: stimulate glucose uptake
- effect of GRK2 knock-down with siRNA on glucose uptake stimulated by the substance [5]: significantly inhibited
- glucose uptake in % of vehicle ([5]; transfected (GRK2 siRNA) cells not expressing GRK, FIG. 9B): 125%

Compound: CS(=O)(=O)Nc1c(O)ccc2c1CCCC2C1=NCCN1 (centres unmarked) [A61603]
- effect of GRK2 down-regulation with siRNA on glucose uptake stimulated by the substance [6]: inhibited

Compound: O=C(CCc1ccc(O)cc1)c1c(O)cc(O)cc1O [Phloretin, phloretin]
- basal glucose uptake in presence of inhibitor [5]: blocked basal glucose uptake
- insulin- and GPCR-stimulated glucose uptake in presence of inhibitor [5]: significantly reduced

Compound: Cc1c2oc3c(C)ccc(C(=O)N[C@@H]4C(=O)N[C@H](C(C)C)C(=O)N5CCC[C@H]5C(=O)N(C)CC(=O)N(C)[C@@H](C(C)C)C(=O)O[C@@H]4C)c3nc-2c(C(=O)N[C@@H]2C(=O)N[C@H](C(C)C)C(=O)N3CCC[C@H]3C(=O)N(C)CC(=O)N(C)[C@@H](C(C)C)C(=O)O[C@@H]2C)c(N)c1=O [actinomycin, Actinomycin D] (I: T[dV]P[Sar][NMeV] / II: T[dV]P[Sar][NMeV]; ester I:1-I:C, II:1-II:C; linker I:N-II:N via Actinocin(9to1))
- cell viability [7]: did not significantly affect
- basal glucose uptake in presence of inhibitor [5]: did not significantly affect
- insulin- and GPCR-stimulated glucose uptake in presence of inhibitor [5]: did not significantly affect

Compound: C[C@@H]1C[C@@H]([C@H](O)CC2CC(=O)NC(=O)C2)C(=O)[C@@H](C)C1 [cyclohexamide]
- basal glucose uptake in presence of inhibitor [5]: did not affect
- insulin- and GPCR-stimulated glucose uptake in presence of inhibitor [5]: did not affect

Compound: C=C1[C@@H](C)[C@H]2[C@H](Cc3ccccc3)NC(=O)[C@]23OC(=O)/C=C/[C@H](O)CCC[C@@H](C)C/C=C/[C@H]3[C@@H]1O [cytochalasin B]
- basal glucose uptake in presence of inhibitor [5]: reduced basal glucose uptake
- insulin- and GPCR-stimulated glucose uptake in presence of inhibitor [5]: reduced

Compound: CC(C)(C)NC(=O)[C@@H]1CN(Cc2cccnc2)CCN1C[C@@H](O)C[C@@H](Cc1ccccc1)C(=O)N[C@H]1c2ccccc2C[C@H]1O [indinavir]
- basal glucose uptake in presence of inhibitor [5]: blocked basal glucose uptake
- insulin- and GPCR-stimulated glucose uptake in presence of inhibitor [5]: significantly reduced

Compound: NC[C@H](O)c1ccc(O)c(O)c1 [norepinephrine (NA), norepinephrine]
- effect of GRK2 down-regulation with siRNA on glucose uptake stimulated by the substance [6]: inhibited

Compound: Cc1cc(C(C)(C)C)c(O)c(C)c1CC1=NCCN1 [oxymetazoline]
- effect of GRK2 down-regulation with siRNA on glucose uptake stimulated by the substance [6]: inhibited

Compound: insulin
- glucose uptake [5]: increased glucose uptake
- effect of GRK2 knock-down with siRNA on glucose uptake stimulated by the substance [5]: could not be blocked; also recorded: does not inhibit
- effect of GRK2 down-regulation with siRNA on glucose uptake stimulated by the substance [6]: does not inhibit
- GLUT4 recruitment to the plasma membrane [4]: GLUT4 recruitment to the plasma membrane to the same extent
